Data from US20200032249A1, “LABELING, ISOLATION, & ANALYSIS OF RNA FROM RARE CELL POPULATIONS” (priority 2017, published 2020).

Experiments:
[1] = test system: MDA231 cells expressing CD/UPRT in mouse lungs; test: signal-to-noise ratio of Flura-tagging and TU-tagging in vivo, lung colonization xenograft, RT-PCR; details: 250 mg/kg, 12 h post injection
Procedure: FIG. 3 a-g. Flura-tagging of mRNA in vivo. FIG. 3a—Schematic diagram of lung colonization xenograft assay used for evaluation of Flura-tagging/Flura-seq. Athymic mice were injected through the tail vein with 50,000 MDA231 cells expressing CD/UPRT and GFP-luciferase. Upon the development of detectable bioluminescent lung metastases (4 weeks), mice were treated with doxycycline to induce CD/UPRT expression and injected with 5-FC. Lungs were harvested, and Flura-tagged mRNAs were immunopurified. FIG. 3b—Comparison of signal-to-noise ratio of Flura-tagging and TU-tagging in vivo. Mice were injected with either 5-FC or TU, the Flura-tagged or TU-tagged mRNAs were purified 12 h post injection, and the relative fold enrichment of representative human housekeeping genes relative to representative murine housekeeping genes (mHPRT1, mLDH1, mPGK1 and mGAPDH), normalized to their corresponding unpurified inputs, were measured by RT-PCR (n=5, ±S.E.). FIG. 3c—Quantification of the number of human cells in the mouse lungs used for Flura-tagging. Half of the mouse lungs used for Flura-tagging in FIG. 3b was dissociated into single cells, and the number of RFP+ cells was quantified using flow cytometry. The total number of MDA231 cells per lung was estimated based on an assumption of 1.5×10^8 cells per mouse lung (20) (n=5). […] RNA reads were aligned to a hybrid genome containing the human and mouse genomes. […]

[2] = test system: 293T cells; test: anti-BrdU immunofluorescent staining of 293T cells treated with 5-FC or 5-FU; type: cell-based, human; details: untransfected control 293T cells, 250 μM, 24 h
Procedure: S. cerevisiae CD was exogenously expressed in human embryonic kidney 293T cells, and the cells were treated with 250 μM fluorocytosine (5-FC). This system is predicted to generate intracellular fluorouracil (5-FU), which is then incorporated into newly synthesized RNAs (FIG. 1a, b). Antibodies against bromodeoxyuridine (BrdU) can recognize BrdU and other halogenated uridines incorporated into nucleic acids (8).
(§1) Human embryonic kidney transformed with […] (293T) and human breast cancer MDA-MB-231 (MDA231) cells were cultured in DMEM High Glucose medium (Wheaton) supplemented with 10% Fetal Bovine Serum (Clontech, Catalog number 631106) supplemented with 2 mM L-Glutamine. All cell lines have been routinely tested for mycoplasma contamination. For the induction of CD or CD and UPRT, cells were treated with 1 μg/ml doxycycline for 24 h. For Fluorouracil tagging, cells were treated with 250 μM of 5-FC or 5-FU unless indicated. Where indicated, 125 μM thymine was added together with 5-FC. For the formation of stress granules, cells were treated with 500 μM Sodium Arsenite (Santa Cruz Biotechnologies, Catalog number SC-301816).
Cells were fixed with 4% paraformaldehyde for 10 min, permeabilized with 0.2% TritonX-100 for 10 min, blocked with 5% BSA for one hour at room temperature, prior to incubation with primary antibodies at 4° C. overnight, and secondary antibodies (Thermo Fisher anti-chicken antibody, Catalog number A-11039, Thermo Fisher anti-rat antibody, Catalog number A-11006, Abcam anti-rat antibody, Catalog number ab150117) incubated for 1 h at room temperature. Mouse lungs were fixed in 4% paraformaldehyde overnight at 4° C., embedded in paraffin and sectioned. The lung sections were deparaffinized and stained with hematolxylin/eosin or immunostained using standard protocols. Automated image analysis was performed using the FIJI software package.

[3] = test system: MDA231 cells; test: stress granule formation by G3BP immunostaining; type: cell-based; details: 500 μM sodium arsenite, positive control
Procedure: FIG. 2a-b. Flura-tagging has minimal cytotoxicity. FIG. 2a—Effect of Flura-tagging on stress granule formation. MDA231 cells were treated with 5-FC for the indicated times, and the formation of stress granules was detected by G3BP immunostaining. Control cells were either treated with water or sodium arsenite (Arsenite) for one hour. Arrows indicate stress granules (n=3). Scale bar=20 μM. FIG. 2b—Effect of Flura-tagging on transcription. RNA expression in control cells was compared to CD/UPRT-expressing cells treated with the indicated concentrations of 5-FC for 4 h or 12 h. Each dot represents a gene, with the outer/lighter gray dots indicating genes showing more than 2-fold differential expression, as determined by DESeq2 (n=2). The dotted line represents the four-fold cutoff mark.
5-FU is extensively used as a chemotherapeutic agent for the treatment of solid tumors, based on its ability to induce cancer cell death by inhibiting thymidylate synthase and by causing DNA and RNA damage (12-14). It was therefore crucial to test whether our 5-FU-tagging method, which is based on low concentrations of 5-FC and short incubation time periods, has significant cytotoxic effects under our experimental conditions. CD/UPRT-expressing cells were treated with 5-FC at concentrations of up to 250 μM for up to 12 h (“Flura-tagged” cells), and the effects of this treatment on RNA damage response and transcriptional regulation were investigated.
A key feature of the RNA damage response is the formation of stress granules (15). Ras GTPase-activating protein-binding protein 1 (G3BP), a key component of stress granules, forms distinct foci during stress granule formation (12). We determined the dose- and time-dependent effect of 5-FC treatment on stress granule formation by immunostaining of the cells with anti-G3BP antibody. […] The 5-FC-treated cells started to form stress granules only after 24 h of treatment with 1 mM 5-FC, a concentration four times higher than the maximal concentration of 5-FC used for Flura-tagging, or after 48 h of 5-FC treatment at lower concentrations (FIG. 2a).
as §1, with “For the formation of stress granules, cells were treated with 500 μM Sodium Arsenite (Santa Cruz Biotechnologies, Catalog number SC-301816).” left out

O=c1cc[nH]c(=S)[nH]1 [thiouracil]
enrichment of human mRNAs compared to mouse mRNAs [1]: approximately 10 fold

O=c1[nH]cc(F)c(=O)[nH]1 [5-FU, 5-fluoro-uracil]
immunostaining with anti-BrdU antibody [2]: positive immunostaining

O=[As]O [sodium arsenite]
time to formation of distinct G3BP foci [3]: ≤ 1 h
